Experimental data reported in US20180296586A1, “USE OF NADPH FOR PREPARATION OF A DRUG FOR ANTIPLATELET AGGREGATION” (Chongqing Institute of Bench-to-Bed Bioengineering …, priority 2015, published 2018).

Experiments:
[1] = test system: ADP-induced platelet aggregation; experiment: ADP-induced platelet aggregation of rats, in-vitro administration of NADPH; assay type: cell-based; settings: rat PRP, NADPH 30, 60 and 90 μM in vitro, ADP 20 μM, 4 min; P<0.05, P<0.01 vs ADP group
Description: (§1) 20 rats are subjected to blood drawing from abdominal aorta, 3.8% sodium citrate is used for carrying out anticoagulation treatment according to a drawn blood volume/anticoagulant ratio of 9:1, centrifugation is carried out for 5 min at a rate of 1000 r/min, upper-layer platelet-rich plasma (PRP) is sucked out, remaining blood is subjected to centrifugation for 10 min at a rate of 3000 r/min to prepare platelet-poor plasma (PPP) until the number of platelets is 2*10<8>/mL, and platelet aggregation is detected by adopting a platelet aggregometer Chronolog-590.
The platelet aggregometer is turned on and preheated for 30 min, and light transmittance is adjusted to 100% with PPP as blank control. 0.25mL of NADPH samples of different concentrations (30 μM, 60 μM and 90 μM) are added into PRP, preheating is conducted for 5 min at the temperature of 37 DEG C., the preheated material is put into the aggregometer, then, a certain amount of ADP (20 μM) is added to induce platelet aggregation, graphic changes in 4 min are recorded, and conditions of ADP-induced platelet aggregation caused by NADPH are observed.

[2] = test system: thrombin-induced platelet aggregation; experiment: Thrombin-induced platelet aggregation of rats, in-vitro administration of NADPH; assay type: cell-based; settings: rat PRP, NADPH 30, 60 and 90 μM in vitro, thrombin 2U, 4 min; P<0.05, P<0.01 vs thrombin group
Description: as §1
The platelet aggregometer is turned on and preheated for 30 min, and light transmittance is adjusted to 100 % with PPP as blank control. 0.25 mL of NADPH samples of different concentrations (30 μM, 60 μM and 90 μM) are added into PRP, preheating is conducted for 5 min at the temperature of 37 DEG C., the preheated material is put into the aggregometer, then, a certain amount of thrombin (2U) is added to induce platelet aggregation, graphic changes in 4 min are recorded, and conditions of thrombin-induced platelet aggregation caused by NADPH are observed.

[3] = test system: ADP-induced platelet aggregation; experiment: ADP-induced platelet aggregation after preventive administration of NADPH in rats; assay type: in vivo, rat; settings: NADPH 7.5 mg/kg caudal vein 30 min before blood drawing, ADP 20 μM, P<0.01
Description: as §1, with “Normal SD male rats are randomly divided into 2 groups, i.e., a physiological saline group (saline group) and an NADPH (7.5 mg/kg) dosage group in a manner that each group comprises 10 rats. NADPH is injected into the rats through caudal veins 30 min before blood drawing. The” for “20”
The platelet aggregometer is turned on and preheated for 30 min, and light transmittance is adjusted to 100% with PPP as blank control. APRP sample of the physiological saline group (saline group) and a PRP sample of the NADPH (7.5 mg/kg) dosage group are preheated for 5 min at the temperature of 37 DEG C., the preheated PRP samples are put into the aggregometer, then, a certain amount of ADP (20 μM) is added to induce platelet aggregation, graphic changes in 4 min are recorded, and conditions of ADP-induced platelet aggregation caused by NADPH are observed.

[4] = test system: thrombin-induced platelet aggregation; experiment: Thrombin-induced platelet aggregation after preventive administration of NADPH in rats; assay type: in vivo, rat; settings: NADPH 7.5 mg/kg caudal vein 30 min before blood drawing, thrombin 2U, P<0.01
Description: as §1, with “Normal SD male rats are randomly divided into 2 groups, i.e., a physiological saline group (saline group) and an NADPH (7.5 mg/kg) dosage group in a manner that each group comprises 10 rats. NADPH is injected into the rats through caudal veins 30 min before blood drawing. The” for “20”
The platelet aggregometer is turned on and preheated for 30 min, and light transmittance is adjusted to 100% with PPP as blank control. […]

SMILES: NC(=O)C1=CN([C@@H]2O[C@H](COP(=O)(O)OP(=O)(O)OC[C@H]3O[C@@H](n4cnc5c(N)ncnc54)[C@H](OP(=O)(O)O)[C@@H]3O)[C@@H](O)[C@H]2O)C=CC1 [NADPH, Reduced triphosphopyridine nucleotide]
- inhibition of ADP-induced platelet aggregation [1]: inhibits ADP-induced platelet aggregation of rats in a dose-dependent mode
- inhibition of thrombin-induced platelet aggregation [2]: inhibits thrombin-induced platelet aggregation of the rats in a dose-dependent mode
- inhibition of ADP-induced platelet aggregation [3]: remarkably inhibit ADP-induced platelet aggregation
- inhibition of thrombin-induced platelet aggregation [4]: remarkably inhibit thrombin-induced platelet aggregation
